Consider 85 compounds from a melting point compilation (Tetko et al.; mined from patent text by program, amines drawn as free bases though some values may be those of a salt).

One may read the melting point as the temperature, or range, at which the solid turns liquid.

`CCOC(=O)c1nc(N)sc1-c1nc2cc(C)ccn2c1C` yielded a melting point of 226 to 228 °C.
In turn, `Cc1[nH]c(=O)c2c(ccc3nc(Nc4c(Cl)cccc4Cl)n(C)c32)c1CC(=O)N1CCOCC1` came in with a melting point of over 300 °C.
Then `COc1ccc(C(=O)Nc2ccccc2)cc1NCc1ccc(F)c(F)c1`, with 150 to 152 °C; and `COc1cc(-c2ncc(C(F)(F)F)cc2F)c(F)cc1Cl`, with 79 to 80 °C.
Then `CC1CC(c2c(S(C)(=O)=O)ccc(C(=O)O)c2Cl)=NO1` (stereo not given), with 173 to 178 °C.
The compound `CS(=O)(=O)c1ccc(-c2oncc2CCCO)cc1` gave a melting point of 125 to 126 °C.
Then `Cc1cc(C)c(Nc2nc(C)ncc2S(=O)(=O)c2ccc(F)cc2)c(C)c1`, with 191 to 193 °C; and `Cc1nccn1CCCNC(=O)c1ccc(Cl)nc1`, with 175 to 177 °C; and `CCOC(=O)C1=C(C)NC(C)=C(C(=O)OCC)C1c1cc2cnccc2s1`, with 204 to 205 °C.
On to `CCCCCCC(C)(C)c1cc(O)c2c(c1)OC(C)(C)[C@@H]1CCC(=O)C[C@H]21` (relative stereo), for which the melting point lay within 151 to 153 °C.
Under `COCCOC(=O)CC[C@@H](NC(=O)[C@@H](NC(=O)OC(C)(C)C)C(C)C)C(N)=O` stands 107 to 108 °C; under `COc1ccc(-c2nc(SCCOCCn3ccnc3C)[nH]c2-c2ccc(OC)cc2)cc1`, 77 to 79 °C.
Under `O=C(CCCCCN1C(=O)c2ccc([N+](=O)[O-])cc2C1=O)NO` stands 130 to 132 °C.
Under `CCCOc1n[nH]c(=O)n1C` stands 74 °C; under `CC(C)(Cn1cnc2c(N)nc3ccccc3c21)CC1(C)OCCO1`, 153 to 155 °C; under `CNc1nc(-c2ccccc2)c(-c2nc(N)nc(Nc3cccc([N+](=O)[O-])c3)n2)s1`, 277 °C.
`CSc1nc(N)c(N)c(N)n1`: the melting point lay in the range of 180 to 182 °C.
Under `O=C(O)c1ccc(Oc2ccc3c(c2)CCN(CCN2CCCC2)C3=O)cc1` stands 99 to 100 °C; under `O=S(=O)(N[C@H](Cc1ccc(C(F)(F)F)cc1)[C@@H](O)c1ccc(F)cc1)c1cccc2ccccc12` (racemic), 176 to 177 °C; under `N=C(NO)c1ccc2cc(O)c(O)cc2c1`, 238 to 243 °C.
Then `C=CS(=O)(=O)CC(=O)N1CCN(C(=O)CS(=O)(=O)C=C)CC1`, with 215 °C; and `CC(COc1ccc(N2N=C3c4ccccc4SCC3CC2=O)cc1)N(C)C` (stereo not given), with 171 to 173 °C; and `COC(=O)C1(C(F)CCCCOc2ccc(Cl)cc2)CO1` (stereo not given), with 76 to 78 °C.
Then `CCCCCCC(C(=O)O)n1cc(Cc2ccccc2)c2cc(-c3ccccc3-c3nn[nH]n3)ccc21` (stereo not given), with 108 to 112 °C; and `Cc1cccc(NC(=O)NC2N=C(c3ccccc3F)c3ccccc3N(Cc3nc4ccccc4[nH]3)C2=O)c1` (racemic), with 165 to 167 °C; and `CC(C)CC(C(=O)O)c1cc(Cl)c(-c2ccc(C(F)(F)F)cc2)c(OCC2CC2)c1` (stereo not given), with 115 to 116 °C.
`CN(SC1(C)CCCC1=O)C(=O)ON=C1SC(C)(C)C(=O)N1C` (stereo not given) showed a melting point of 119 to 121 °C.
Then `O=C1NCC(C(F)(F)F)C(=O)N1Cc1ccccc1` (stereo not given), with 129 to 130 °C; and `CC(=O)Oc1ccc(-c2cnc(NC(=O)Cc3ccccc3)c(Cc3ccccc3)n2)cc1`, with 228 to 231 °C.
Under `Cc1cc2c(-c3cccc(-c4noc(=S)[nH]4)c3)c(CC(=O)Nc3ccc(F)cc3C(F)(F)F)c(=O)oc2cc1Cl` stands 178 to 180 °C; under `COC(=O)c1cccc(CN2CCc3cc(O)c(OC)cc3C2)c1`, 156 to 158 °C.
Under `CC(=O)NCCNC(=O)c1ccccn1` stands 96 to 99 °C; under `CC(C#Cc1cccc(C2=NOC(c3ccc(F)cc3)C2)c1)N(O)C(N)=O` (stereo not given), 132 to 133 °C.
In turn, `COC(=O)c1cc(OC)c(O)cc1-c1c(C(=O)OC)ccc2c1OCO2` came in with a melting point of 172 to 173 °C.
Then `O=C(Nc1ccccc1OC(=O)c1ccccc1)c1cc(Cl)c(OC(=O)c2ccccc2)c(Cl)c1`, with 157 to 160 °C.
As for `O=C(Nc1n[nH]c(=S)s1)NC(Cc1ccccc1)C(=O)NCc1cccnc1` (stereo not given), the melting point is 99 to 101 °C.
Under `CC(=O)OC1(C(=O)CO)CCC2C3CC(C)C4=CC(=O)C=CC4(C)C3C(O)CC21C` (stereo not given) stands 198 to 201 °C.
Then `N#Cc1nn(-c2c(Cl)cc(C(F)(F)F)cc2Cl)cc1C(=O)C(F)(F)C(F)(F)C(F)(F)F`, with 102 to 103 °C.
Under `Cc1ccc(C)c(OCc2ccccc2CC#N)c1` stands 51.5 to 53 °C; under `COc1ccc(-c2cc(=O)n(CCc3ccc(Cl)cc3Cl)nc2-c2ccc(OC)cc2)cc1`, 119 to 120 °C.
As for `N#CC(C(=O)Cl)=C(c1ccccc1)c1ccccc1`, the melting point fell in the range of 157 to 158 °C.
Then `COC(=O)c1cc2ccc3c(c2c(-c2ccc4c(c2)OCO4)c1C(=O)OC)OCO3`, with 157 to 159 °C.
Then `COc1c(C)c2c(c(NC(=O)N(C)C)c1C/C=C(\C)CCC(=O)O)C(=O)OC2`, with 170 to 190 °C; and `CN(C)c1c(C=O)n(C)c(=O)n1-c1cccc(C(F)(F)F)c1`, with 87 to 90 °C.
Under `O=C(O)c1cc(NC(C(=O)O)c2ccccc2Cl)c(Cl)cc1Cl` (stereo not given) stands 210 °C; under `CNc1nc(OC(F)F)cc(OC(F)F)n1`, 54 to 55 °C; under `CC[C@H](C)[C@H](NC(=O)OC(C)(C)C)C(=O)N[C@H](C(=O)N[C@@H](Cc1ccc2ccccc2c1)[C@@H](O)[C@@H](O)CC(C)C)[C@@H](C)CC`, 168 to 169 °C.
Compound `COc1c(Nc2ncc(Cl)c(Nc3ccccc3S(=O)(=O)N(C)C)n2)ccc2c1CC(N1CCOCC1)CCC2` (stereo not given) gave a melting point of 92 to 104 °C.
Under `c1ccc(CN2CCC3(C2)OC(c2ccccc2)c2ccccc23)cc1` (stereo not given) stands 85 to 87 °C.
Then `CCCCCCCCCCCCCCNC(=S)NC(=O)c1ccc(C#N)cc1`, with 78 to 80 °C; and `Cc1cccc(-c2[nH]nc(N3CCN(C)CC3)c2-c2ccncc2)c1`, with 262 °C.
In turn, `CS(=O)(=O)c1ccc(-c2cnn(-c3ccc(F)cc3)c(=O)c2N2CCCCC2)cc1` showed a melting point of 80 to 100 °C.
Then `COc1ccc(-c2cc3ccc(C(=O)O)cc3o2)cc1C12CC3CC(CC(C3)C1)C2`, with 290 °C; and `N=C(NO)c1ccc(-c2ccc(-c3nc4cc(C(=N)NO)ccc4[nH]3)cc2)nc1`, with 305 to 308 °C.
In turn, `CN1CCN(C(=O)OC2c3ccccc3C(=O)N2c2ccc3ccc(C#N)nc3n2)CC1` (stereo not given) displayed a melting point of 266 to 268 °C.
Under `CCOC(=O)C1=C(C)NC(C)=C(C(=O)OCC)C1c1ccc(OC(C)(C)C(=O)OCC)cc1` stands 215 °C; under `O=C(C[N+](=O)[O-])c1ncn(Cc2ccccc2)c1[N+](=O)[O-]`, 105 to 107 °C; under `Cc1ccc2c(c1)CC(=O)c1cc(F)ccc1S2`, 103 to 104 °C.
Then `O=C(O)COc1ccc2c(-c3ccc(Cl)cc3F)noc2c1Cl`, with 226 to 227 °C.
Then `COCC1CN(c2cccnc2)C(=O)O1` (racemic), with 65 to 66 °C.
The compound `Cc1cc(-c2ccc(C(F)(F)F)cc2)cc(-c2ccnc(-c3cccc(S(N)(=O)=O)c3)n2)n1` gave a melting point of over 250 °C.
Then `Cc1cc(C(C)(C)C)c(O)c(P(=O)(c2ccccc2)C2c3ccccc3-c3ccccc32)c1` (stereo not given), with 237 to 240 °C; and `Cc1ccc(NCCCCOc2ccc3ccccc3c2)cc1`, with 98 °C.
Under `COc1ccc2c(c1)Oc1ccc(Cl)cc1NC2` stands 113 to 115 °C.
Under `Cc1cc(C[C@@H](NC(=O)c2ccc(F)c3ccccc23)[C@@H](O)c2ccc(F)cc2)cc(OC(F)(F)C(F)F)c1` (racemic) stands 189 to 190 °C.
With `Cn1c(=O)c2ccsc2n(CC2CC2)c1=O`, the melting point is 75 to 77 °C.
Then `COc1ccc2c(c1)C(=NO)c1c-2cnc2ccccc12`, with 270 to 271 °C; and `COC(=O)c1cc(C(=O)NCC(C)(C)C)ccc1-c1cc(C(=O)OC(C)(C)C)cc(F)c1C`, with 68 to 74 °C.
Then `COc1ccc(Cn2c(=O)oc(=O)c3cc(Cl)cnc32)cc1`, with 173 °C; and `COC(=O)c1ccc(N2CCCC2)c(NC(=O)C(CSC(C)=O)Cc2ccccc2)c1` (stereo not given), with 72 to 75 °C; and `CCCCc1nc2c(N)nc3ccccc3c2n1CCCNS(=O)(=O)c1cccc2c(N(C)C)cccc12`, with 216 to 218 °C.
Under `O=C(C=Cc1ccccc1)c1c(Cl)cccc1Cl` stands 98.2 to 99.2 °C; under `CCNc1cccnc1N1CCN(Cc2cc(C)c(O)c(C)c2)CC1`, 203 to 206 °C; under `CC(C)OC(=O)C(C(=O)OC(C)C)=C1SC2C(S1)N(C(C)C)CCN2C(C)C` (stereo not given), 82 to 84 °C.
The compound `N#Cc1cccnc1N1CCN(Cc2nc3ccccc3[nH]2)CC1` gave a melting point of 208 to 210 °C.
Under `O=C1C[C@@H]2[C@@H](/C=C/C(=O)[C@@H]3OCc4ccccc4O3)[C@H](OC(=O)c3ccccc3)C[C@@H]2O1` stands 129 to 130 °C; under `CCC(O)(CC)Cc1ccc(NC(=O)OCc2ccccc2)cc1`, 99 to 100 °C; under `COc1cc(/C=C/C(=O)Nc2ccccc2C(=O)O)ccc1OCC1CCCCC1`, 207 to 210 °C.
Then `O=C1Nc2ccc(Br)cc2C12OCCCO2`, with 166 to 168 °C; and `COC(=O)C(C)(C)c1ccc2c(c1)c(=O)[nH]c(=O)n2CCCCBr`, with 164 to 165 °C.
Under `Cn1cc(C(=O)F)c(C(F)F)c1` stands 53 to 54 °C; under `Cc1cccc(Nc2cc(Nc3ccc(OCC#N)cc3)ncn2)c1`, 207 to 210 °C; under `CN(C)C1(c2ccccc2)CCC(NC2c3ccccc3-c3ccccc32)CC1` (stereo not given), 202 to 205 °C.
Consider `CCCc1c(O)ccc2oc(Cc3ccc(OC)cc3)c(C)c12`, for which the melting point fell in the range of 91 to 93 °C.
For `Clc1cccc(CN(c2ncnc3[nH]ncc23)C2CCCC2)c1`, the melting point fell in the range of 186 to 187 °C.
